In article PMC11325505, “Nitrogen-Containing Flavonoids—Preparation and Biological Activity” (ACS Omega, 2024):
≈ marks a conversion by molar mass, not a printed value.

What was measured:
RAW 264.7 cells = test: Cellular antioxidant activity (CAA); assay type: cell-based, Murine; conditions: for IC50: average of four repetitions ± standard error of the mean; for change of antioxidant activity compared to the parent compound, in words: CAA in macrophages
Protocol: To evaluate the antioxidant activity of the prepared derivatives and the respective parent compounds, cellular antioxidant activity (CAA) was measured in macrophages. Compared to other in vitro antioxidant assays, this method provides partial information about the uptake and metabolism of the compounds, because, in this assay, they must first enter the cell to exert antioxidant activity.[31] […] Derivatization of quercetin at C-8 with 4-fluoroaniline (5) increased the antioxidant activity of quercetin by 1.7-fold. […] The concentration of these derivatives required to halve the cellular radicals decreased 1.5-fold compared to luteolin.
Cellular antioxidant capacity was evaluated as previously described.[31],[39] Briefly, 100 μL of RAW 264.7 cells with a density corresponding to 1 × 10^6 cells/mL were split into 96-well plates. After 24 h, cells were washed with PBS, and DMEM supplemented with DCFH-DA (0.0125 mg/mL) was added to each well together with the tested samples in the concentration range of 1.5–200 μM. After 1 h incubation in a CO2 incubator, the medium was replaced with AAPH solution (0.16 mg/mL in PBS), and fluorescence was immediately recorded (ex./em. 485/540 nm) for 2 h in 5 min intervals.

[1] = system: tumor necrosis factor (TNF-α) production by RAW 264.7 stimulated by LPS; test: Anti-inflammatory activity: TNF-α production by LPS-stimulated macrophages; assay type: cell-based, Murine; conditions: Mus musculus, RAW264.7; LPS-stimulated RAW 264.7; average of four repetitions ± SEM; read-out: TNFα production IC50
Protocol: The anti-inflammatory activity of flavonoids was evaluated as their ability to decrease the production of signaling molecules that mediate inflammation, such as nitric oxide (NO), tumor necrosis factor (TNF-α), and interleukin 6 (IL-6), in LPS-stimulated macrophages.
The anti-inflammatory activity of the tested flavonoids was determined as the ability to reduce the production of nitric oxide (NO), tumor necrosis factor (TNF-α), and interleukin 6 (IL-6) by RAW 264.7 stimulated by LPS, as previously described.[39],[40] Briefly, 1 × 10^6 cells/mL was seeded into the 96-well plate (100 μL/well). After 48 h, LPS (100 ng/mL) and the samples (3–100 μM) were added to the MEM medium. After 24 h, the medium was mixed with Griess reagent (0.04 g/mL) at a 1:1 ratio. The absorbance was measured after 15 min at 540 nm. Cell viability was determined using the resazurin assay.
To determine TNF-α levels, cells were precultivated with the tested compounds for 24 h. After 2 h of incubation with LPS, the medium was diluted 1:10 with ELISA diluent. To determine the level of IL-6, cells were cultivated for 6 h with LPS and the tested compounds. Cytokine production was determined using an uncoated ELISA performed according to the manufacturer’s instructions.

S. aureus MRSA 9 = test: Antibacterial activity, multidrug-resistant strain; assay type: cell-based; conditions: Staphylococcus aureus, MRSA; multidrug-resistant strain; three repetitions ± SEM
Protocol: To evaluate the ability to modulate bacterial resistance, the tested flavonoids themselves cannot exert antimicrobial activity; therefore, the nontoxic concentration was used, as indicated in Table S5. Clinically relevant antibiotics were selected at breakpoint concentrations for susceptibility testing according to the European Committee on Antimicrobial Susceptibility Testing (EUCAST, version 11.0). […] Flavonoids and their derivatives (from 1 μM to the highest nontoxic concentration) were used in combination with the breakpoint concentration of the antibiotics. After coincubation, the minimum inhibitory concentration (MIC) of flavonoids inhibiting the visible growth of bacteria was determined (Table 2).
(§1) Sensitization of multidrug-resistant clinical bacterial strains was performed according to ref[15]. Antibiotic cutoff concentration was chosen according to the European Committee on Antimicrobial Susceptibility Testing (EUCAST, Clinical breakpoints–bacteria, ver. 11.0). The 200 μM concentration of the derivatives was chosen as the highest test concentration. The absorbance detected at 600 nm was then used to estimate the number of viable cells after 24 h of incubation at 37 °C and 120 rpm.
(§2) Experiments were performed with the respective number of replicates indicated in each figure/table. MIC was determined as IC70. Both IC70 and IC50 values were calculated using the following nonlinear regression in the software GraphPad Prism: […]

MRSA 3596 = test: Mode of antimicrobial action with erythromycin or gentamicin, ermA- and aadD-positive strain; assay type: cell-based, S. aureus; conditions: for effect (mode of action with erythromycin) / effect (mode of action with gentamicin) / FIC (Fractional Inhibitory Concentration Index): MRSA 3596; for MIC, Gentamicin [1 mg/L] yes / MIC: MRSA 3596 (aadD); for MIC, Gentamicin [1 mg/L] yes: with gentamicin 1 mg/L; for MIC, erythromycin [1 mg/L] yes / MIC, erythromycin [1 mg/L] no: MRSA 3596 (ermA); for MIC, erythromycin [1 mg/L] yes: with erythromycin 1 mg/L; for MIC, erythromycin [1 mg/L] no: without erythromycin, Table 4; for MIC: Staphylococcus aureus, 24 h, read-out: MIC, Gentamicin [1 mg/L] no, without gentamicin, Table S6
Text: Erythromycin is a macrolide antibiotic that inhibits proteosynthesis by binding to the 50S subunit of the ribosome. In Staphylococcus species, resistance to erythromycin is associated with the presence of methyltransferases (encoded by erm genes) that alter the ribosomal target site. Another typical mechanism of resistance to erythromycin is the presence of an ATP-dependent efflux pump encoded by the msr(A) gene or a major facilitator superfamily (MFS) pump encoded by the lmrS gene. Both efflux pumps reduce the concentration of erythromycin in the cell below the therapeutic dose by transporting it across the membrane to the extracellular space. Another erythromycin resistance gene is the mph(C) gene, the product of which is a phosphotransferase that alters the structure of macrolide antibiotics. To elucidate the mechanism of erythromycin resistance modulation in S. aureus, further tests were performed with the strains MRSA 331 and MRSA 3596, which inactivate erythromycin via a single mechanism (ermC and ermA, respectively). […] Therefore, if the activity was not strain-specific, it would be necessary to consider the effect of the derivatives on this pump (Table 3).
(§3) Among the mechanisms of resistance to gentamicin previously described in S. aureus, the presence of enzymes that alter the structure of aminoglycosides is crucial. These enzymes can transfer nucleotides, phosphates, or acetyls to various −OH or −NH2 groups of gentamicin, preventing its subsequent interaction with the cellular target, i.e., the 30S ribosomal subunit. The bifunctional aminoglycoside-modifying enzyme with acetylation and phosphotransferase activities encoded by the gene aac(6’)/aph(2’), 4′,4″ adenyltransferase encoded by the aadD gene, and aminoglycoside O-phosphotransferase encoded by the gene aph(3′) are the most important.[37] […] For this reason, further testing continued using strains MRSA 3596 and MRSA 1584, which inactivate gentamicin only by a single mechanism (aadD and aac(6’)-aph(2’’), respectively).
as §1, §2

MRSA 1584 = test: Mode of antimicrobial action with gentamicin, aac(6')/aph(2')-positive strain; assay type: cell-based, Staphylococcus aureus; conditions: for effect (mode of action with gentamicin) / FIC (Fractional Inhibitory Concentration Index) / MIC: MRSA 1584; for MIC, Gentamicin [1 mg/L] yes: MRSA 1584 (aac(6')/aph(2')), with gentamicin 1 mg/L; for FIC (Fractional Inhibitory Concentration Index): with gentamicin; for MIC: Staphylococcus aureus, 24 h, read-out: MIC, Gentamicin [1 mg/L] no, without gentamicin
Text: as §3, §1, §2

[2] = Mus musculus, RAW264.7, macrophages RAW 264.7

SMILES | IC50 (RAW 264.7 cells; [2]) [µM] | IC50 (RAW 264.7 cells; macrophages RAW 264.7) [µM] | IC50 [1] [µM] | IC50 (S. aureus MRSA 9) [µM] | effect (mode of action with erythromycin) (MRSA 3596) | effect (mode of action with gentamicin) (MRSA 3596) | MIC, Gentamicin [1 mg/L] yes (MRSA 3596) [µM] | MIC, erythromycin [1 mg/L] yes (MRSA 3596) [µM] | MIC, erythromycin [1 mg/L] no (MRSA 3596) [µM] | effect (mode of action with erythromycin) (MRSA 3596; listed as quercetin) | FIC (Fractional Inhibitory Concentration Index) (MRSA 3596; with erythromycin) | FIC (Fractional Inhibitory Concentration Index) (MRSA 3596; with gentamicin) | MIC (MRSA 3596) [µM] | effect (mode of action with gentamicin) (MRSA 1584) | MIC, Gentamicin [1 mg/L] yes (MRSA 1584) [µM] | FIC (Fractional Inhibitory Concentration Index) (MRSA 1584) | MIC (MRSA 1584) [µM] | change of antioxidant activity compared to the parent compound, in words (RAW 264.7 cells)
O=c1c(O)c(-c2ccc(O)c(O)c2)oc2cc(O)cc(O)c12 [compound 4, quercetin, reference compound] | 5.9 ± 0.4 | 5.85 | 55.1 ± 2.1 | > 200 | synergy (Fractional Inhibitory Concentration Index (FIC) < 0.5 indicates synergism) | synergy (Fractional Inhibitory Concentration Index (FIC) < 0.5 indicates synergism) | 54.5 ± 0.6 (≈ 16.5 µg/mL) | 58.6 ± 1.2 (≈ 17.7 µg/mL) | 178.1 ± 2.7 (≈ 53.8 µg/mL) | synergistic activity | 0.33 ± 0.01 | 0.31 ± 0.01 | 178 ± 2.7 (≈ 53.8 µg/mL) | additive (> 0.5-1 indicates additive effects) | 55.6 ± 1.1 (≈ 16.8 µg/mL) | 0.63 ± 0.01 | 88.6 ± 0.3 (≈ 26.8 µg/mL) | 
O=c1cc(-c2ccc(O)c(O)c2)oc2c(Nc3cccc(F)c3)c(O)cc(O)c12 [compound 15, 2-(3,4-Dihydroxyphenyl)-8-(3-fluoroanilino)-5,7-dihydroxy-4H–1-benzopyran-4-one] | 6.7 ± 0.2 |  | > 25 | 56.9 ± 1.9 |  | synergy (Fractional Inhibitory Concentration Index (FIC) < 0.5 indicates synergism) | 5.3 ± 0.1 (≈ 2.1 µg/mL) |  |  |  |  | 0.21 ± 0.1 | 25.7 ± 0.4 (≈ 10.2 µg/mL) | additive (> 0.5-1 indicates additive effects) | 27.6 ± 0.5 (≈ 10.9 µg/mL) | 0.96 ± 0.02 | 28.6 ± 0.1 (≈ 11.3 µg/mL) | significantly decreased the antioxidant activity
O=c1c(O)c(-c2ccc(O)c(O)c2)oc2c(Nc3ccc(F)cc3)c(O)cc(O)c12 [compound 5, 2-(3,4-Dihydroxyphenyl)-8-(4-fluoroanilino)-3,5,7-trihydroxy-4H–1-benzopyran-4-one] | 3.4 ± 0.2 |  | > 50 | 60.7 ± 2.4 |  |  | > 200 |  |  |  |  |  | > 200 | additive (> 0.5-1 indicates additive effects) | 28.2 ± 0.5 (≈ 11.6 µg/mL) | 0.97 ± 0.02 | 29.2 ± 0.1 (≈ 12 µg/mL) | 
O=c1cc(-c2ccc(O)c(O)c2)oc2c(Nc3ccccc3)c(O)cc(O)c12 [compound 13, 2-(3,4-Dihydroxyphenyl)-8-(anilino)-5,7-dihydroxy-4H–1-benzopyran-4-one] | 3.1 ± 0.1 |  | > 25 | 51.3 ± 1.3 |  | synergy (Fractional Inhibitory Concentration Index (FIC) < 0.5 indicates synergism) | 23.2 ± 0.4 (≈ 8.75 µg/mL) |  |  |  |  | 0.25 ± 0.01 | 93 ± 0.6 (≈ 35.1 µg/mL) | additive (> 0.5-1 indicates additive effects) | 49.9 ± 8.1 (≈ 18.8 µg/mL) | 0.70 ± 0.12 | 70.9 ± 0.3 (≈ 26.8 µg/mL) | 
COc1ccc(Nc2c(O)cc(O)c3c(=O)cc(-c4ccc(O)c(O)c4)oc23)cc1 [compound 12, 2-(3,4-Dihydroxyphenyl)-8-(4-methoxyanilino)-5,7-dihydroxy-4H–1-benzopyran-4-one] | 3.4 ± 0.1 |  | > 50 | 112 ± 1.2 | synergy (Fractional Inhibitory Concentration Index (FIC) < 0.5 indicates synergism) | synergy (Fractional Inhibitory Concentration Index (FIC) < 0.5 indicates synergism) | 31.4 ± 1.0 (≈ 12.8 µg/mL) | 20.0 ± 0.6 (≈ 8.15 µg/mL) | 53.6 ± 0.5 (≈ 21.8 µg/mL) |  | 0.37 ± 0.01 | 0.34 ± 0.01 | 91 ± 0.9 (≈ 37.1 µg/mL) | additive (> 0.5-1 indicates additive effects) | 47.1 ± 0.8 (≈ 19.2 µg/mL) | 0.65 ± 0.03 | 72.9 ± 2.4 (≈ 29.7 µg/mL) | 
O=c1c(O)c(-c2ccc(O)c(O)c2)oc2c(Nc3ccc(C(F)(F)F)cc3)c(O)cc(O)c12 [compound 8, 2-(3,4-Dihydroxyphenyl)-8-(4-(trifluoromethyl)anilino)-3,5,7-trihydroxy-4H–1-benzopyran-4-one] | 11.5 ± 0.3 |  | > 50 | 35.3 ± 0.7 | synergy (Fractional Inhibitory Concentration Index (FIC) < 0.5 indicates synergism) | synergy (Fractional Inhibitory Concentration Index (FIC) < 0.5 indicates synergism) | 5.7 ± 0.1 (≈ 2.63 µg/mL) | 8.4 ± 1.1 (≈ 3.88 µg/mL) | 37.9 ± 0.1 (≈ 17.5 µg/mL) |  |  |  | 37.9 ± 0.1 (≈ 17.5 µg/mL) | additive (> 0.5-1 indicates additive effects) | 23.9 ± 0.1 (≈ 11 µg/mL) |  | 24.5 ± 0.4 (≈ 11.3 µg/mL) | significantly decreased the antioxidant activity
